Assay results taken from the supplement of paper PMC10307832.

Experiments:
Experiment in all cases: relative viability (nuclei count vs DMSO), 5 days (fraction); higher = more cells survive
Gemcitabine + Trametinib = compound: Nc1ccn([C@@H]2O[C@H](CO)[C@@H](O)C2(F)F)c(=O)n1 [Gemcitabine] + CC(=O)Nc1cccc(-n2c(=O)n(C3CC3)c(=O)c3c(Nc4ccc(I)cc4F)n(C)c(=O)c(C)c32)c1 [Trametinib] (partner 0.02 µM)
Summary of the method: (§1)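 One day after seeding in 1536-well plates, lung cancer cell lines were dosed by pin tool. Dosing was either single-drug or a fixed anchor-drug dose plus five library-drug doses (not always all listed) in √10 steps. After 5 days, nuclei were stained in one fix-and-stain step and counted on 4× images, and relative viability is the nuclei count of treated wells over that of vehicle wells, given as the median of duplicate plates.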

Gemcitabine + Bortezomib = compound: Nc1ccn([C@@H]2O[C@H](CO)[C@@H](O)C2(F)F)c(=O)n1 [Gemcitabine] + CC(C)C[C@H](NC(=O)[C@H](Cc1ccccc1)NC(=O)c1cnccn1)B(O)O [Bortezomib] (partner 0.002 µM)
Summary of the method: as §1

Gemcitabine + Pictilisib = compound: Nc1ccn([C@@H]2O[C@H](CO)[C@@H](O)C2(F)F)c(=O)n1 [Gemcitabine] + CS(=O)(=O)N1CCN(Cc2cc3nc(-c4cccc5[nH]ncc45)nc(N4CCOCC4)c3s2)CC1 [Pictilisib] (partner 1 µM)
Summary of the method: as §1

Gemcitabine + Olaparib = compound: Nc1ccn([C@@H]2O[C@H](CO)[C@@H](O)C2(F)F)c(=O)n1 [Gemcitabine] + O=C(c1cc(Cc2n[nH]c(=O)c3ccccc23)ccc1F)N1CCN(C(=O)C2CC2)CC1 [Olaparib] (partner 8 µM)
Summary of the method: as §1

Cell Line	relative viability (Gemcitabine + Trametinib; first compound 0.001 µM)	relative viability (Gemcitabine + Trametinib; first compound 0.003162 µM)	relative viability (Gemcitabine + Trametinib; first compound 0.01 µM)	relative viability (Gemcitabine + Trametinib; first compound 0.03162 µM)	relative viability (Gemcitabine + Trametinib; first compound 0.1 µM)	relative viability (Gemcitabine + Bortezomib; first compound 0.001 µM)	relative viability (Gemcitabine + Bortezomib; first compound 0.003162 µM)	relative viability (Gemcitabine + Bortezomib; first compound 0.01 µM)	relative viability (Gemcitabine + Bortezomib; first compound 0.03162 µM)	relative viability (Gemcitabine + Bortezomib; first compound 0.1 µM)	relative viability (Gemcitabine + Pictilisib; first compound 0.001 µM)	relative viability (Gemcitabine + Pictilisib; first compound 0.003162 µM)	relative viability (Gemcitabine + Pictilisib; first compound 0.01 µM)	relative viability (Gemcitabine + Pictilisib; first compound 0.03162 µM)	relative viability (Gemcitabine + Pictilisib; first compound 0.1 µM)	relative viability (Gemcitabine + Olaparib; first compound 0.001 µM)	relative viability (Gemcitabine + Olaparib; first compound 0.003162 µM)	relative viability (Gemcitabine + Olaparib; first compound 0.01 µM)	relative viability (Gemcitabine + Olaparib; first compound 0.03162 µM)	relative viability (Gemcitabine + Olaparib; first compound 0.1 µM)
NCI-H2023	0.567	0.577	0.266	0.152	0.0796	1.12	1.11	0.241	0.104	0.0584	0.248	0.266	0.143	0.106	0.0734	0.505	0.414	0.236	0.161	0.0679
NCI-H2085	0.512	0.589	0.472	0.174	0.226	1.02	0.964	0.897	0.682	0.405	0.45	0.448	0.461	0.344	0.347	0.756	0.786	0.699	0.597	0.426
NCI-H2087	0.191	0.204	0.141	0.121	0.0794	0.743	0.569	0.581	0.155	0.166	0.73	0.662	0.386	0.193	0.199	0.69	0.413	0.254	0.0942	0.0872
NCI-H2126	0.59	0.57	0.514	0.418	0.305	1.05	1.1	1.04	0.985	0.67	0.474	0.485	0.479	0.349	0.278	0.888	0.933	0.867	0.562	0.262
NCI-H2228	0.587	0.248	0.156	0.0861	0.111	0.98	1.06	0.281	0.198	0.126	0.375	0.417	0.294	0.236	0.123	0.627	0.333	0.152	0.144	0.0825
NCI-H2347	0.305	0.255	0.276	0.258	0.2	0.621	0.961	0.534	0.653	0.401	0.554	0.655	0.648	0.385	0.348	0.603	0.529	0.496	0.383	0.373
NCI-H2405	0.689	0.67	0.457	0.211	0.211	0.974	0.957	0.582	0.275	0.231	0.432	0.255	0.272	0.2	0.122	0.842	0.766	0.361	0.23	0.179
NCI-H3122	0.219	0.237	0.174	0.141	0.0965	1.08	0.985	0.889	0.303	0.24	0.648	0.595	0.553	0.265	0.159	0.622	0.625	0.396	0.136	0.107
PC-3 [JPC-3]	0.73	0.424	0.469	0.426	0.417	0.835	0.785	0.512	0.286	0.237	0.847	0.61	0.514	0.33	0.286	1.24	0.614	0.49	0.478	0.349
PC-14	0.885	0.279	0.037	0.0374	0.0267	0.867	0.507	0.42	0.0489	0.0512	0.684	0.435	0.139	0.036	0.0292	0.256	0.13	0.0358	0.0472	0.0357
RERF-LC-KJ	0.893	0.827	0.845	0.386	0.24	1.12	1.25	0.92	0.559	0.294	0.775	0.458	0.408	0.304	0.168	1	0.87	0.804	0.389	0.293
SK-LU-1	0.512	0.373	0.267	0.161	0.241	1.16	0.281	0.23	0.175	0.224	0.6	0.537	0.213	0.172	0.192	0.431	0.188	0.181	0.183	0.168
SW 1573	0.46	0.405	0.117	0.0639	0.0615	1.16	0.853	0.538	0.086	0.0926	0.543	0.272	0.178	0.086	0.0746	0.413	0.295	0.0949	0.102	0.0546
UMC-11	0.627	0.635	0.716	0.609	0.161	0.979	0.693	0.677	0.669	0.158	0.942	0.908	0.821	0.714	0.228	0.41	0.496	0.356	0.38	0.247
